Assay results reported in US6026817A, “Method of treating the syndrome of coronary heart disease risk factors in humans” (priority 1998, dated 2000).
Values joined by “and” are separate entries in the source; they are usually repeats but may differ in a detail not shown here. Equal values may be shown once.

Assays:
[1] = target: δ opioid receptor (Homo sapiens, UniProt P41143); experiment: Receptor binding, displacement of prototype ligand DADLE
From the text: (§1) For each receptor there is a prototype ligand. […] For the μ receptor the prototype ligand is DHM (dihydromorphine). For the δ receptor, the prototype ligand is DADLE (D-Ala+D-Leu-Enkephalin), and for the κ receptor, the prototype ligand is EKC (ethylketocyclazocine).

[2] = target: μ opioid receptor (Homo sapiens, UniProt P35372); experiment: biochemical; format: binding; conditions: prototype ligand DHM
From the text: as §1

[3] = target: κ opioid receptor (Homo sapiens, UniProt P41145); experiment: biochemical; format: binding; conditions: prototype ligand EKC
From the text: as §1

[4] = system: μ, δ, and κ opiate receptors; experiment: Ratios of IC50 between opiate receptors; format: binding
From the text: as §1
The relationship between the IC50 levels f or the μ, δ, κ opiate receptors may also be expressed in terms of a ratio.

[5] = system: insulin resistant subject one; experiment: Example II: CHMMO given to an insulin resistant subject, blood values and liver enzymes; format: in vivo, human
Protocol: A insulin resistant subject was given 17-cyclopropylmethyl-3-hydroxy-14-methoxy-8β-methylmorphinan-6-one hydrochloride (CEMMO), a pure opioid antagonist, in two daily doses of 18 mg each for the duration of one week, followed by 9 mg b.i.d. for another 4 weeks.

[6] = system: subject one with Impaired Glucose Tolerance and borderline Type 2 Diabetes; experiment: Example III: Nalmefene given to a subject with Impaired Glucose Tolerance, blood values, enzymes, weight, blood pressure; format: in vivo, human; parameters: HgbA1c Δ% (reduction) / C-Peptide Δ% (reduction) / Chol. Total Δ% (reduction) / LDL-C. Δ% (reduction) / TG Δ% (reduction) / FFA Δ% (reduction): concentration or dose not given beside the values
[7] = system: women with polycystic ovary syndrome with Acanthosis Nigrians; conditions: four women, period of a few days; cited from earlier work
[8] = system: body weight; conditions: in vivo; cited from earlier work
[9] = Day 41 vs Day 1 (after 5 weeks)
[10] = Day 41 vs Day 1 (after 5 weeks), hydrochloride
[11] = Day 41 vs Day 1 (after 5 weeks), listed as CEMMO, hydrochloride
[12] = day 41 (after 5 weeks), 18 mg b.i.d. one week, then 9 mg b.i.d.
[13] = day 41, 18 mg b.i.d. one week, then 9 mg b.i.d.

Chain of κ opioid receptor (P41145 whole entry): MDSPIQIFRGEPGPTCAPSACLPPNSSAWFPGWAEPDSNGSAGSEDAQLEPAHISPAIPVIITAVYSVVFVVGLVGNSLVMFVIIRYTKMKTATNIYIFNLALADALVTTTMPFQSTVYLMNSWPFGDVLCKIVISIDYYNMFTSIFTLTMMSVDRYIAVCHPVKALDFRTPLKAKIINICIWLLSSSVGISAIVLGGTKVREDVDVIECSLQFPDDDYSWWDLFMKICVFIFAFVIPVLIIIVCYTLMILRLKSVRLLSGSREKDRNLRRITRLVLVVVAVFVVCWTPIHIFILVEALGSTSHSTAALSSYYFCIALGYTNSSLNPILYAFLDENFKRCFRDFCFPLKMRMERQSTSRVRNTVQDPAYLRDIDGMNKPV
Chain of μ opioid receptor (P35372 whole entry): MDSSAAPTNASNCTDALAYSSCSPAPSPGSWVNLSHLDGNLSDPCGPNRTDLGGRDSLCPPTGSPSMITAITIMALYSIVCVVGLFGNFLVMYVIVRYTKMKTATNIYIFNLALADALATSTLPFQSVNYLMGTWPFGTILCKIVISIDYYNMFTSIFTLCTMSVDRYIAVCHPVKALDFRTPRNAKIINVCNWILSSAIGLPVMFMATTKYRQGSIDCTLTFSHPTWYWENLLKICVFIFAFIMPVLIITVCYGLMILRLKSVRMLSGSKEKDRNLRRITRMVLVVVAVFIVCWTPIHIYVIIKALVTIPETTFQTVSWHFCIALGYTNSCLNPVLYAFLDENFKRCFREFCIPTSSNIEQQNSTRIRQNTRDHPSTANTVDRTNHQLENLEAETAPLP
Chain of δ opioid receptor (P41143 whole entry): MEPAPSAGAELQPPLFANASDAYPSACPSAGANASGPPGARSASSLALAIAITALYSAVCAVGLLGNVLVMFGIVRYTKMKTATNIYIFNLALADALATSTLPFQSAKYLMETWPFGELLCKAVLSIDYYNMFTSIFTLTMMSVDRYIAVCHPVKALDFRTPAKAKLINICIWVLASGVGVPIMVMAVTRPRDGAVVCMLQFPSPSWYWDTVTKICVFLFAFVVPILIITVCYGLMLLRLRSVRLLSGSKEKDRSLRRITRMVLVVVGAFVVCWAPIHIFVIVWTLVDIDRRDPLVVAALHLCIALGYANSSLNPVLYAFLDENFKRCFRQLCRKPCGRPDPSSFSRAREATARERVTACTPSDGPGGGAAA

`CO[C@@]12[C@@H](C)CC(=O)C[C@@]13CCN(CC1CC1)[C@@H]2Cc1ccc(O)cc13.Cl` [CHMMO, 17-cyclopropylmethyl-3-hydroxy-14-methoxy-8βmethylmorphinan-6-one hydrochloride] showed an IC50 [1] of 0.8 nM, an IC50 [2] of 0.5 nM and an IC50 [3] of 0.95 nM. The “IC50 κ/ IC50 δ ratio” value [4] was less than 3, the “IC50 κ/ IC50 μ ratio” value [4] was less than 3 and the “δ,κ,μ IC50 being within a factor of” value [4] was no more than 3. The Weight ([5]; Day 1) was 82 kg, the Alk-phos ([5]; Day 1, Table III) was 145 U/L and the Weight ([5]; Day 41, 9.0 mg b.i.d.) was 80 kg. For the same compound, the Alk-phos ([5]; Day 41, 9.0 mg b.i.d., Table III) was 126 U/L, the “ALT Δ%” value ([5]; Day 41 vs Day 1) was 31% and the “AST Δ%” value ([5]; Day 41 vs Day 1) was 30%. For the same compound, the “Alk-phos Δ%” value ([5]; Day 41 vs Day 1) was 6%, the “Glucose Δ%” value ([5]; Day 41 vs Day 1) was 14% and the “LD Δ%” value ([5]; Day 41 vs Day 1) was 27%. For the same compound, the “Weight Δ%” value ([5]; Day 41 vs Day 1) was 4.5%, the “Chol. Total Δ% (fall)” value [5, 9] was 21% and the “LDL-C. Δ% (fall)” value [5, 9] was 7%. For the same compound, the “TG Δ% (fall)” value [5, 9] was 42%, the “FFA Δ% (fall)” value [5, 10] was 22.7% and the “HDL-C. Δ% (increase)” value [5, 10] was 16%. The “Insulin Δ% (fall)” value [5, 10] was 50%, the “LDL/HDL Δ% (improvement)” value [5, 10] was 22% and the “FFA Δ% (fall)” value [5, 11] was 23%. The “HDL-C. Δ% (increase)” value [5, 11] was 20%, the “Insulin Δ% (fall)” value [5, 11] was “about 50%” and the “LDL/HDL Δ% (improvement)” value [5, 11] was 23%. For the same compound, the Blood glucose ([5]; after the first week, 18 mg twice daily, remained essentially at the same level) was 95 mg/dL, the ALT ([5]; day 1) was 29 U/L and the AST ([5]; day 1) was 23 U/L. For the same compound, the “CH. T (total cholesterol)” value ([5]; day 1) was 234 mg/dL, the FFA ([5]; day 1) was 0.75 mM/L and the Gluc. ([5]; day 1) was 111 mg/dL. The HDL ([5]; day 1) was 30 mg/dL, the Insulin ([5]; day 1) was 14 μU/ml and the LD ([5]; day 1) was 162 U/L. It also gave an LDL ([5]; day 1) of 156 mg/dL, an LDL/HDL ([5]; day 1) of 5.2 and a TG ([5]; day 1) of 229 mg/dL. The Alk.-Phos ([5]; day 1, Table II (unit not given)) was 145, the ALT ([5]; day 41) was 20 U/L and the AST ([5]; day 41) was 16 U/L. The LD ([5]; day 41) was 117 U/L, the “CH. T (total cholesterol)” value [5, 12] was 185 mg/dL and the HDL [5, 12] was 36 mg/dL. It also gave an Insulin [5, 12] of 6 μU/ml, an LDL [5, 12] of 145 mg/dL and a TG [5, 12] of 133 mg/dL. The LDL/HDL ([5]; day 41 (after 5 weeks), 18 mg b.i.d. one week, then 9 mg b.i.d., hydrochloride) was 4.0 and 4.03, the LDL/HDL ([5]; day 41 (after 5 weeks), 18 mg b.i.d. one week, then 9 mg b.i.d., listed as CEMMO, hydrochloride) was 4.0 and the Alk.-Phos ([5]; day 41, Table II (unit not given)) was 126. The FFA [5, 13] was 0.58 mM/L, the Gluc. [5, 13] was 95 mg/dL and the “drop of blood glucose” value ([5]; during the first week, 18 mg twice daily) was 15%. For the same compound, the FFA ([5]; end of study, after 5 weeks) was 580 μE/L, the Weight ([5]; end of the study) was “slight weight loss” and the FFA ([5]; start of study) was 754 μE/L.
`C=C1CC[C@@]2(O)[C@H]3Cc4ccc(O)c5c4[C@@]2(CCN3CC2CC2)[C@H]1O5` [Nalmefene, 6-desoxy-6-methylene-naltrexone] gave an ALT ([6]; Day 1) of 72 U/L, an AST ([6]; Day 1) of 31 U/L and an Alk-phos ([6]; Day 1) of 70 U/L. For the same compound, the “Blood Pressure, diastolic” value ([6]; Day 1) was 100, the “Blood Pressure, systolic” value ([6]; Day 1) was 136 and the C-Peptide ([6]; Day 1) was 4.7 ng/mL. For the same compound, the “Chol. Total” value ([6]; Day 1) was 247 mg/dL, the FFA ([6]; Day 1) was 0.68 mM/L and the GG-transp ([6]; Day 1) was 56 U/L. The Glucose ([6]; Day 1) was 138 mg/dL, the HDL-C. ([6]; Day 1) was 37 mg/dL and the HgbA1c ([6]; Day 1) was 6.0%. It also gave an Insulin ([6]; Day 1) of 27 μU/ml, an LD ([6]; Day 1) of 125 U/L and an LDL-C. ([6]; Day 1) of 140 mg/dL. The LDL/HDL ([6]; Day 1) was 3.78, the TG ([6]; Day 1) was 270 mg/dL and the Weight ([6]; Day 1) was 86 kg. For the same compound, the ALT ([6]; Day 141, 0.5 mg b.i.d.) was 42 U/L, the AST ([6]; Day 141, 0.5 mg b.i.d.) was 16 U/L and the Alk-phos ([6]; Day 141, 0.5 mg b.i.d.) was 72 U/L. The “Blood Pressure, diastolic” value ([6]; Day 141, 0.5 mg b.i.d.) was 83, the “Blood Pressure, systolic” value ([6]; Day 141, 0.5 mg b.i.d.) was 128 and the C-Peptide ([6]; Day 141, 0.5 mg b.i.d.) was 2.9 ng/mL. For the same compound, the “Chol. Total” value ([6]; Day 141, 0.5 mg b.i.d.) was 193 mg/dL, the FFA ([6]; Day 141, 0.5 mg b.i.d.) was 0.41 mM/L and the GG-transp ([6]; Day 141, 0.5 mg b.i.d.) was 32 U/L. The Glucose ([6]; Day 141, 0.5 mg b.i.d.) was 120 mg/dL, the HDL-C. ([6]; Day 141, 0.5 mg b.i.d.) was 40 mg/dL and the HgbA1c ([6]; Day 141, 0.5 mg b.i.d.) was 5.4%. The Insulin ([6]; Day 141, 0.5 mg b.i.d.) was 16 μU/ml, the LD ([6]; Day 141, 0.5 mg b.i.d.) was 120 U/L and the LDL-C. ([6]; Day 141, 0.5 mg b.i.d.) was 118 mg/dL. For the same compound, the LDL/HDL ([6]; Day 141, 0.5 mg b.i.d.) was 2.95, the TG ([6]; Day 141, 0.5 mg b.i.d.) was 175 mg/dL and the Weight ([6]; Day 141, 0.5 mg b.i.d.) was 79 kg. The “ALT Δ%” value ([6]; Day 141 vs Day 1) was 42%, the “AST Δ%” value ([6]; Day 141 vs Day 1) was 48% and the “Alk-phos Δ%” value ([6]; Day 141 vs Day 1) was 3%. The “Blood Pressure reduction, diastolic” value ([6]; Day 141 vs Day 1) was 17 pts, the “Blood Pressure reduction, systolic” value ([6]; Day 141 vs Day 1) was 8 pts and the “C-Peptide Δ% (reduction)” value ([6]; Day 141 vs Day 1) was 38%. The “Chol. Total Δ% (reduction)” value ([6]; Day 141 vs Day 1) was 22%, the “FFA Δ% (reduction)” value ([6]; Day 141 vs Day 1) was 40% and the “GG-transp Δ%” value ([6]; Day 141 vs Day 1) was 43%. The “Glucose Δ% (reduction in fasting blood glucose)” value ([6]; Day 141 vs Day 1) was 13%, the “HDL-C. Δ% (increase)” value ([6]; Day 141 vs Day 1) was 8% and the “HgbA1c Δ% (reduction)” value ([6]; Day 141 vs Day 1) was 10%. For the same compound, the “Insulin Δ%” value ([6]; Day 141 vs Day 1) was 43%, the “LD Δ%” value ([6]; Day 141 vs Day 1) was 4% and the “LDL-C. Δ% (reduction)” value ([6]; Day 141 vs Day 1) was 16%. The “LDL/HDL Δ% (improvement)” value ([6]; Day 141 vs Day 1) was 22%, the “TG Δ% (reduction)” value ([6]; Day 141 vs Day 1) was 35% and the “Weight Δ% (reduction)” value ([6]; Day 141 vs Day 1) was 8%. For the same compound, the elevated insulin concentrations [7] was “reduced” and the “δ,κ,μ IC50 being within a factor of” value [4] was no more than 10.
For `O=C1CC[C@@]2(O)[C@H]3Cc4ccc(O)c5c4[C@@]2(CCN3CC2CC2)[C@H]1O5` [Naltrexone], the “reduction of body weight” value [8] is listed as “inconsistent results”.
